Values quoted from earlier work as cited in patent US9717795B2, “HPPH lyophilized powder injection for injection and preparation method thereof” (ZHEJIANG HISUN PHARMACEUTICAL CO., LTD, priority 2013, dated 2017).

solubility in water: poor solubility in water
Substance: HPPH
